Results reported in patent US6599898B2, “Use of certain substituted caprolactam carbonates and ethers in treating tumors” (Novartis AG, priority 2000, dated 2003).

What was measured:
[1] = tested on: A549 tumor xenografts; experiment: Human tumor xenograft growing s.c. in athymic nude mice; type: in vivo, athymic nude mouse; details: 5×/week for 2 weeks, recorded on day 24, * = p<0.05
Protocol: (§1) Utilizing this model, one can measure the ability of test compounds to inhibit the growth of human tumor xenografts growing subcutaneously (s.c.) in athymic nude mice. The histologic tumor type employed was MDA-MB-435 breast carcinoma for Ex.1 and 7 and A549 non-small cell lung carcinoma for Ex. 1-3.
A549 non-small cell lung carcinoma: Treatments were started 17 d post-implantation (1×10^7 cells/mouse), when a mean tumor volume of approximately 120 mm^3 was reached. Ex. 1-3 were administered iv on days 17-21 (followed by 2 d rest, then a second cycle of treatment on days 24-28). Total daily doses of 10 or 30 μmol/kg were administered as a single injection. Data in this table were recorded on day 24, 3 d after the last treatment of the first cycle. An asterisk (*) indicates p<0.05 using a one-tailed Student's t-Test.
Toxicity was monitored by recording average group body weights twice weekly, and by daily observation of general health. Efficacy was monitored by taking measurements of tumor length, width, and depth weekly using digital calipers coupled to automated data collectors. […] Anti-tumor activity was expressed as % T/C(Δ MTV of treated group÷Δ MTV of control group×100%). Statistical significance was evaluated using a one-tailed Student's t-test (p<0.05).

[2] = tested on: MDA-MB-435 tumor xenografts; experiment: as above; type: in vivo, athymic nude mouse; details: 3×/week for 3 weeks, * = p<0.05
Protocol: as §1
MDA-MB-435 human breast carcinoma: Treatments were started 15 d post implantation (3×10^6 cells/mouse), when a mean tumor volume of approximately 45 mm^3 was reached. Ex. 1 and 7 were administered iv at three times per week for 3 weeks (days 15, 17, 20, 22, 24, 27, 29, and 31), at 3.3, 10, and 33 μmol/kg. Doxorubicin was administered iv at 2 mg/kg using the same schedule. Each data point represents tumor growth (mean±SEM), or body weight (mean), with an initial group size of n=8, from a representative experiment performed twice. An asterisk (*) indicates p<0.05 using a one-tailed Student's t-test.
Toxicity was monitored by recording average group body weights twice weekly, and by daily observation of general health. Efficacy was monitored by taking measurements of tumor length, width, and depth weekly using digital calipers coupled to automated data collectors. Mean tumor volume (MTV) at initiation of therapy was subtracted from final MTV in order to express the actual tumor growth during treatment (Δ MTV). Anti-tumor activity was expressed as % T/C(Δ MTV of treated group÷Δ MTV of control group×100%). Statistical significance was evaluated using a one-tailed Student's t-test (p<0.05).

[3] = tested on: MDA-MB-435 human breast carcinoma; experiment: Anchorage Dependent Growth Monolayer Assay (ADGMA), MTS; type: cell-based; details: MDA-MB-435, 72 h, 3-day exposure, MTS A490, read-out: IC50 (average±S.D.) MDA-MB-435
Protocol: As indicated above, all of the compounds of formula I, and their corresponding pharmaceutically acceptable acid addition salts, are anti-tumor agents and are, therefore, useful in inhibiting the growth of various lymphomas, sarcomas, carcinomas, myelomas, and leukemia cell lines. […]
The ADGMA compares the number of viable cells following a 3-day exposure to a test compound relative to a number of cells present at the time the test compound was added. […] The absorbance at 490 nm (A490) of the formazan derivative is proportional to the number of viable cells. […]
Cell lines are trypsinized and counted using a Coulter counter to determine plating densities. […] The number of cells plates as determined in preliminary experiments, results in cell densities of 75-90% of confluency by 4 days after plating. Initial cell densities, assayed one day after plating, are roughly 0.15-0.20 absorbance units greater than the media blank. […] A490 of control plates is read 4 h after MTS addition to determine initial cell density values for each cell line. Three days after addition of test compound, 10 μL/well of MTS mixture is added to the test plates and A490 is read 4 h later. A490 values for wells containing cells are corrected for media absorbance, then normalized to initial density readings to determine percent net growth. […]

**Q.** What does the source list for `CCCCCOC(=O)O[C@@H]1CC[C@H](NC(=O)[C@H](OC)[C@H](O)[C@@H](O)[C@H](O)/C=C/C(C)(C)C)C(=O)NC1` [Ex. 2, (2R,3R,4S,5R,6E)-3,4,5-trihydroxy-2-methoxy-8,8-dimethyl-N-[(3S,6R)-hexahydro-2-oxo-6-([[pentyloxy]carbonyl]oxy)-2H-azepin-3-yl]non-6-enonamide]?
**A.** % T/C ([1]; 10 μmol/kg iv daily): 32* %; % T/C ([1]; 30 μmol/kg iv daily): 46* %

**Q.** Which “% T/C” value ([2]; 3.3 μmol/kg iv) does the source give for `CCCCCCCCCCCOCC(=O)O[C@@H]1CC[C@H](NC(=O)[C@H](OC)[C@H](O)[C@@H](O)[C@H](O)/C=C/C(C)(C)C)C(=O)NC1` [Ex. 7, (2R,3R,4S,5R,6E)-3,4,5-trihydroxy-2-methoxy-8,8-dimethyl-N-[(3S,6R)-hexahydro-2-oxo-6-([[undecyloxy]acetyl]oxy)-2H-azepin-3-yl]non-6-enonamide] here?
**A.** 102%

**Q.** What about the “% T/C” value ([2]; 10 μmol/kg iv) of the same compound?
**A.** 64%

**Q.** And the “% T/C” value ([2]; 33 μmol/kg iv)?
**A.** 30* %

**Q.** What about the IC50 [3] of the same compound?
**A.** 61 ± 95 nM
